# According to patent publication US4206215A, “Antimicrobial bis-[4-(substituted-amino)-1-pyridinium]alkanes” (Sterling Drug Inc., priority 1977, dated 1980):
# Where two headings read alike, the source gives them in different places.
# Key:
# [1] = test system: Herpes simplex type 2 virus; assay: Virucidal activity in vitro (plaque inhibition test); format: cell-based; settings: 2 mg. of test compound on growth medium
# Method: Virucidal activity of representative examples against Herpes simplex type 2 virus was determined in vitro employing a procedure similar to the plaque inhibition test for detection of specific inhibitors of DNA-containing viruses published by E. C. Herrmann, Jr., Proc. Soc. Exp. Biol. Med. 107, 142 (1961) wherein 2 mg. of the test compound was placed on the surface of the growth medium.
# P. mirab. MGH-1 = assay: In vitro antibacterial activity, MIC (modified Autotiter method); format: cell-based, Proteus mirabilis; settings: 18-20 hours at 37° C.; for MIC: Proteus mirabilis, 20 h, read-out: MIC P. mirab. MGH-1
# Procedure, shortened: (§1)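 Compounds are diluted serially by twofold steps in sterile water using the Autotiter, beginning with a 1,000 mcg./ml. solution; addition of inoculated double-strength semisynthetic medium with glucose yields final concentrations between 500 and 0.06 mcg./ml.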
# E. Coli ATCC 8739 = assay: Effect of serum on bacteriostatic activity (serial tube dilution test); format: cell-based, Escherichia coli; settings: for Fold Increase in MIC E. Coli ATCC 8739: 40% vs 0% horse serum; for MIC: Escherichia coli, ATCC8739
# Method: (§2) Antibacterial effectiveness in the presence of serum was determined for representative examples by the standard serial tube dilution test wherein paired comparisons of minimum inhibitory concentrations (MIC) were determined in the absence and in the presence of heat inactivated (30 min. at 56° C.) horse serum (40%) in the test medium. The results are expressed as the fold increase in MIC (mcg./ml.) versus Staphyloccocus aureus and Escherichia coli caused by the presence of serum and are presented in Table B hereinbelow.
# S. Aureus Smith = assay: In vitro antibacterial activity, MIC (modified Autotiter method); format: cell-based, Staphylococcus aureus; settings: 18-20 hours at 37° C.; for MIC: Staphylococcus aureus, 20 h, read-out: MIC S. Aureus Smith
# Procedure, shortened: as §1
# T. menta. 9129 = assay: In vitro antifungal activity, MIC (modified Autotiter method); format: cell-based, Trichophyton mentagrophytes; settings: 18-20 hours at 37° C.; for MIC: Trichophyton mentagrophytes, 20 h, read-out: MIC T. menta. 9129
# Procedure, shortened: as §1
# S. Aureus ATCC 6538 = assay: Effect of serum on bacteriostatic activity (serial tube dilution test); format: cell-based, Staphyloccocus aureus; settings: for Fold Increase in MIC S. Aureus ATCC 6538: 40% vs 0% horse serum; for MIC: Staphylococcus aureus, ATCC6538
# Method: as §2
# S. pyogen. C203 = assay: In vitro antibacterial activity, MIC (modified Autotiter method); format: cell-based, Streptococcus pyogenes; settings: 18-20 hours at 37° C.; for MIC: Streptococcus pyogenes, 20 h, read-out: MIC S. pyogen. C203
# Procedure, shortened: as §1
# K. pneum. 39645 = assay: as above; format: cell-based, Klebsiella pneumoniae; settings: 18-20 hours at 37° C.; for MIC: Klebsiella pneumoniae, 20 h, read-out: MIC K. pneum. 39645
# Procedure, shortened: as §1
# C. albicans Wisc. = assay: In vitro antifungal activity, MIC (modified Autotiter method); format: cell-based, Candida albicans; settings: 18-20 hours at 37° C.; for MIC: Candida albicans, 20 h, read-out: MIC C. albicans Wisc.
# Procedure, shortened: as §1
# C. albicans 10231 = assay: as above; format: cell-based, Candida albicans; settings: 18-20 hours at 37° C.; for MIC: Candida albicans, 10231, 20 h, read-out: MIC C. albicans 10231
# Procedure, shortened: as §1
# A. niger 16404 = assay: as above; format: cell-based, Aspergillus niger; settings: 18-20 hours at 37° C.; for MIC: Aspergillus niger, 16404, 20 h, read-out: MIC A. niger 16404
# Procedure, shortened: as §1
# E. coli Vogel = assay: In vitro antibacterial activity, MIC (modified Autotiter method); format: cell-based, Escherichia coli; settings: 18-20 hours at 37° C.; for MIC: Escherichia coli, 20 h, read-out: MIC E. coli Vogel
# Procedure, shortened: as §1
# E. coli AB1932-1 = assay: as above; format: cell-based, Escherichia coli; settings: 18-20 hours at 37° C.; for MIC: Escherichia coli, AB19321, 20 h, read-out: MIC E. coli AB1932-1
# Procedure, shortened: as §1
# E. coli 100/B22 = assay: as above; format: cell-based, Escherichia coli; settings: 18-20 hours at 37° C.; for MIC: Escherichia coli, 100/B22, 20 h, read-out: MIC E. coli 100/B22
# Procedure, shortened: as §1
# Ps. aerug. MGH-2 = assay: as above; format: cell-based, Pseudomonas aeruginosa; settings: 18-20 hours at 37° C.; for MIC: Pseudomonas aeruginosa, 20 h, read-out: MIC Ps. aerug. MGH-2
# Procedure, shortened: as §1
# [2] = 40% heat inactivated horse serum, read-out: MIC E. Coli ATCC 8739 40% Serum
# [3] = read-out: MIC E. Coli ATCC 8739 0% Serum
# [4] = 40% heat inactivated horse serum, read-out: MIC S. Aureus ATCC 6538 40% Serum
# [5] = read-out: MIC S. Aureus ATCC 6538 0% Serum
SMILES,Virucidal activity against Herpes simplex type 2 virus [1],Fold Increase in MIC E. Coli ATCC 8739 (E. Coli ATCC 8739),MIC (E. Coli ATCC 8739; [2]),MIC (E. Coli ATCC 8739; [3]),Fold Increase in MIC S. Aureus ATCC 6538 (S. Aureus ATCC 6538),MIC (S. Aureus ATCC 6538; [4]),MIC (S. Aureus ATCC 6538; [5]),MIC S. pyogen. C203 (S. pyogen. C203),MIC (S. Aureus Smith),MIC (T. menta. 9129),MIC (S. pyogen. C203),MIC (K. pneum. 39645),MIC (C. albicans Wisc.),MIC (C. albicans 10231),MIC (E. coli Vogel),MIC (E. coli AB1932-1),MIC (E. coli 100/B22),MIC (Ps. aerug. MGH-2),MIC (P. mirab. MGH-1),MIC (A. niger 16404),further results
"CCCCCCNc1cc[n+](CCCCCCCCCCCC[n+]2ccc(NCCCCCC)cc2)cc1 [Example 7, 1,12-bis-[4-(hexylamino)-1-pyridinium]dodecane dibromide]",active,32 fold,12.5 µg/mL,0.39 µg/mL,16 fold,1.56 µg/mL,0.1 µg/mL,1.0 µg/mL,–,–,–,–,–,–,–,–,–,–,–,–,MIC P. mirab. MGH-1 (P. mirab. MGH-1): 6.0 µg/mL; MIC S. Aureus Smith (S. Aureus Smith): 0.15 µg/mL; MIC T. menta. 9129 (T. menta. 9129): 0.37 µg/mL; MIC K. pneum. 39645 (K. pneum. 39645): 1.5 µg/mL; MIC C. albicans Wisc. (C. albicans Wisc.): 0.74 µg/mL; MIC C. albicans 10231 (C. albicans 10231): 0.74 µg/mL; MIC A. niger 16404 (A. niger 16404): 3.0 µg/mL; MIC E. coli Vogel (E. coli Vogel): 0.37 µg/mL; MIC E. coli AB1932-1 (E. coli AB1932-1): 0.37 µg/mL; MIC E. coli 100/B22 (E. coli 100/B22): 0.37 µg/mL; MIC Ps. aerug. MGH-2 (Ps. aerug. MGH-2): 23.8 µg/mL
"CCCCCCCCNc1cc[n+](CCCCCC[n+]2ccc(NCCCCCCCC)cc2)cc1 [Example 13, 1,6-bis-[4-(octylamino)-1-pyridinium]hexane dibromide]",active,32 fold,31.2 µg/mL,1 µg/mL,128 fold,31.2 µg/mL,0.25 µg/mL,–,0.5 µg/mL,0.5 µg/mL,0.5 µg/mL,3.9 µg/mL,1.95 µg/mL,1.95 µg/mL,1.95 µg/mL,1 µg/mL,1.95 µg/mL,31.3 µg/mL,–,–,MIC P. mirab. MGH-1 (P. mirab. MGH-1): 31.3 µg/mL; MIC A. niger 16404 (A. niger 16404): 3.9 µg/mL
"CCCCCCCNc1cc[n+](CCCCCCCC[n+]2ccc(NCCCCCCC)cc2)cc1 [Example 22, 1,8-bis-[4-(heptylamino)-1-pyridinium]-octanedibromide]",active,8 fold,3.9 µg/mL,0.5 µg/mL,16 fold,3.9 µg/mL,0.25 µg/mL,0.49 µg/mL,0.39 µg/mL,1.95 µg/mL,–,1.95 µg/mL,1.95 µg/mL,0.98 µg/mL,1.95 µg/mL,0.98 µg/mL,0.98 µg/mL,–,62.5 µg/mL,15.6 µg/mL,MIC Ps. aerug. MGH-2 (Ps. aerug. MGH-2): 313 µg/mL
"CCCCCCNc1cc[n+](CCCCCCCCCC[n+]2ccc(NCCCCCC)cc2)cc1 [Example 33, 1,10-bis-[4-(hexylamino)-1-pyridinium]decane dibromide]",active,16 fold,3.9 µg/mL,0.25 µg/mL,16 fold,1.95 µg/mL,0.125 µg/mL,–,0.195 µg/mL,1.95 µg/mL,0.49 µg/mL,3.9 µg/mL,3.9 µg/mL,1.95 µg/mL,1.95 µg/mL,0.98 µg/mL,1.95 µg/mL,31.3 µg/mL,31.3 µg/mL,3.9 µg/mL,–
"CCCCCCCNc1cc[n+](CCCCC[n+]2ccc(NCCCCCCC)cc2)cc1 [Example 60, 1,5-bis-[4-(heptylamino)-1-pyridinium]pentane dibromide]",active,–,–,–,–,–,–,–,0.49 µg/mL,7.8 µg/mL,1.95 µg/mL,31.3 µg/mL,15.6 µg/mL,15.6 µg/mL,31.3 µg/mL,3.9 µg/mL,7.8 µg/mL,125 µg/mL,> 125 µg/mL,15.6 µg/mL,–
"CCCCCCCNc1cc[n+](CCCCCC[n+]2ccc(NCCCCCCC)cc2)cc1 [Example 61, 1,6-bis-[4-(heptylamino)-1-pyridinium]hexane dibromide]",active,–,–,–,–,–,–,0.4 µg/mL,0.2 µg/mL,3.13 µg/mL,–,6.3 µg/mL,6.25 µg/mL,6.25 µg/mL,3.1 µg/mL,1.6 µg/mL,1.6 µg/mL,125 µg/mL,> 250 µg/mL,–,MIC A. niger 16404 (A. niger 16404): 25 µg/mL
"CCCCC(CC)CNc1cc[n+](CCCC[n+]2ccc(NCC(CC)CCCC)cc2)cc1 (stereo not shown) [Example 63, 1,4-bis-[4-(2-ethylhexylamino)-1-pyridinium]butane dibromide]",active,–,–,–,–,–,–,–,0.98 µg/mL,15.6 µg/mL,1.25 µg/mL,> 125 µg/mL,31.3 µg/mL,31.3 µg/mL,62.5 µg/mL,7.8 µg/mL,31.3 µg/mL,125 µg/mL,> 125 µg/mL,31.3 µg/mL,–
"Clc1ccc(Nc2cc[n+](CCCCCCCCCC[n+]3ccc(Nc4ccc(Cl)cc4)cc3)cc2)cc1 [Example 79B, 1,10-bis-[4-(p-chlorophenylamino)-1-pyridinium]decane dimethanesulfonate]",inactive,32 fold,15.6 µg/mL,0.5 µg/mL,32 fold,7.8 µg/mL,0.25 µg/mL,–,0.4 µg/mL,6.25 µg/mL,0.4 µg/mL,3.1 µg/mL,6.25 µg/mL,3.13 µg/mL,1.6 µg/mL,0.8 µg/mL,1.6 µg/mL,62.5 µg/mL,> 125 µg/mL,25 µg/mL,–
"Clc1ccc(Nc2cc[n+](CCCCCCC[n+]3ccc(Nc4ccc(Cl)cc4)cc3)cc2)cc1 [Example 81, 1,7-bis-[4-(p-chlorophenylamino)-1-pyridinium]heptane dibromide]",active,–,–,–,–,–,–,–,0.98 µg/mL,7.8 µg/mL,0.49 µg/mL,> 125 µg/mL,31.3 µg/mL,31.3 µg/mL,3.9 µg/mL,125 µg/mL,3.9 µg/mL,> 125 µg/mL,> 125 µg/mL,31.3 µg/mL,–
"Clc1ccc(Nc2cc[n+](CCCCCCCCC[n+]3ccc(Nc4ccc(Cl)cc4)cc3)cc2)cc1 [Example 82, 1,9-bis-[4-(p-chlorophenylamino)-1-pyridinium]nonane dibromide]",active,–,–,–,–,–,–,–,0.625 µg/mL,3.9 µg/mL,0.24 µg/mL,7.8 µg/mL,3.9 µg/mL,3.9 µg/mL,0.98 µg/mL,0.98 µg/mL,1.95 µg/mL,125 µg/mL,> 125 µg/mL,15.6 µg/mL,–
